The values that follow come from patent publication US12649727B2, “EFGR inhibitor, preparation method therefor and application thereof” (Abbisko Therapeutics Co., Ltd, priority 2020, dated 2026).

Molecules are shown by their SMILES.

Type in all cases: cell-based
In experiment [1] the target is Ba/F3 EGFR-V769_D770insASV (Homo sapiens, UniProt P00533, DUP767-769, cells depend on it). Put plainly: Proliferation experiment of Ba/F3 cell line, EGFR-V769_D770insASV (CellTiter-Glo). The conditions noted are these: cultured for 72 hrs with compound, CTG analysis, read-out: Ba/F3 EGFR-V769_D770insASV IC50. As for the experimental part: (§1) Proliferation Experiment of Ba/F3 Cell Line
(§2) (I) Reagents and Materials
(§3) • Fetal bovine serum FBS (GBICO, Cat #10099-141); • CellTiter-Glo® luminescent cell viability assay kit (Promega, Cat #G7572); • Black transparent flat-bottom 96 well plate (Corning®, Cat #3603). (II) Instruments • SpectraMax multi-label microplate reader MD, 2104-0010A; • Carbon dioxide incubator, Thermo Scientific 3100 series; • Biological safety cabinet, Thermo Scientific, 1300 series model A2; • Inverted microscope, Olympus, CKX41SF; • Siemens refrigerator KK25E76TI. (III) Cell Lines and Culture Conditions
(§4) (IV) Experimental Procedures 1. Cell Culture and Inoculation: • (1) Cells in the logarithmic growth phase were harvested and counted using a […]. Cell viability was detected by Trypan Blue Dye Exclusion Method to ensure cell viability above 90%. • (2) The cell concentration was adjusted to reach a desired final density; 90 μL of cell suspension was added to the 96-well plate. • (3) The cells were incubated overnight in the 96-well plate at 37° C., 5% CO2 and at 95% humidity.
(§5) 2. T0 Reference Data: • (1) 10 μL PBS was added to each well of the TO plate containing the cells. • (2) The CTG reagent was thawed and the cell plate was equilibrated to room temperature for 30 min. • (3) An equal volume of CTG solution was added to each well. • (4) The cells were lysed by shaking on an orbital shaker for 5 min. • (5) The cell plate was left at room temperature for 20 min to stabilize the luminescence signal. • (6) The fluorescence signal values of TO were read. 3. Dilution and Addition of Compounds • (1) According to the compound information table, a corresponding volume of DMSO was added to the corresponding compound powder to prepare a 10 mM stock solution. • (2) A 1000-fold, 3.16-fold-diluted compound solution was prepared. • (3) The 1000× diluted compound solution was diluted 100-fold with PBS to prepare a 10-fold compound solution with a maximum concentration of […], including 9 concentrations, with 3.16-fold dilution, and 10 μL of the medicament solution was added to each well of the 96-well plate to seed the cells. Triplicate wells were set for each compound concentration, with a final concentration of DMSO being 0.1%. • (4) The cells were placed in the 96-well plate filled with the medicament at 37° C., 5% CO2 and at 95% humidity, and cultured for 72 hrs before CTG analysis. 4. Fluorescence Signal Reading • (1) The CTG reagent was thawed and the cell plate was equilibrated to room temperature for 30 min. • (2) An equal volume of CTG solution was added to each well. • (3) The cells were lysed by shaking on an orbital shaker for 5 min. • (4) The cell plate was left at room temperature for 20 min to stabilize the fluorescence signal. • (5) The fluorescence values were read. 5. Data Processing
(§6) Data were analyzed using GraphPad Prism 7.0 software and fitted data were regressed using non-linear S-curves to obtain dose-response curves from which IC50 values (in nM) were calculated.

Experiment [2] concerns the target Ba/F3 EGFR-D770-N771ins_SVD (Homo sapiens, UniProt P00533, DUP768-770, cells depend on it). Put plainly: Proliferation experiment of Ba/F3 cell line, EGFR-D770-N771ins_SVD (CellTiter-Glo). The conditions noted are these: cultured for 72 hrs with compound, CTG analysis, read-out: Ba/F3 EGFR-D770-N771ins_SVD IC50. As for the experimental part:
as §1, §2, §3, §4, §5, §6

In the next experiment the test system is A431 (EGFR-WT). Put plainly: Proliferation experiment, A431 cell line (CellTiter-Glo). The settings on record: Homo sapiens, A-431; A431 cells, cultured for 72 hrs with compound, CTG analysis. As for the experimental part:
[The procedure below names another cell line; the source lists this cell line under the same test.] as §1, §2, §3, §4, §5, §6
Background: ATP-based viability assays read luminescence as a measure of living cells.

Chain of Ba/F3 EGFR-V769_D770insASV (P00533 with tags, fused parts or gaps DUP767-769): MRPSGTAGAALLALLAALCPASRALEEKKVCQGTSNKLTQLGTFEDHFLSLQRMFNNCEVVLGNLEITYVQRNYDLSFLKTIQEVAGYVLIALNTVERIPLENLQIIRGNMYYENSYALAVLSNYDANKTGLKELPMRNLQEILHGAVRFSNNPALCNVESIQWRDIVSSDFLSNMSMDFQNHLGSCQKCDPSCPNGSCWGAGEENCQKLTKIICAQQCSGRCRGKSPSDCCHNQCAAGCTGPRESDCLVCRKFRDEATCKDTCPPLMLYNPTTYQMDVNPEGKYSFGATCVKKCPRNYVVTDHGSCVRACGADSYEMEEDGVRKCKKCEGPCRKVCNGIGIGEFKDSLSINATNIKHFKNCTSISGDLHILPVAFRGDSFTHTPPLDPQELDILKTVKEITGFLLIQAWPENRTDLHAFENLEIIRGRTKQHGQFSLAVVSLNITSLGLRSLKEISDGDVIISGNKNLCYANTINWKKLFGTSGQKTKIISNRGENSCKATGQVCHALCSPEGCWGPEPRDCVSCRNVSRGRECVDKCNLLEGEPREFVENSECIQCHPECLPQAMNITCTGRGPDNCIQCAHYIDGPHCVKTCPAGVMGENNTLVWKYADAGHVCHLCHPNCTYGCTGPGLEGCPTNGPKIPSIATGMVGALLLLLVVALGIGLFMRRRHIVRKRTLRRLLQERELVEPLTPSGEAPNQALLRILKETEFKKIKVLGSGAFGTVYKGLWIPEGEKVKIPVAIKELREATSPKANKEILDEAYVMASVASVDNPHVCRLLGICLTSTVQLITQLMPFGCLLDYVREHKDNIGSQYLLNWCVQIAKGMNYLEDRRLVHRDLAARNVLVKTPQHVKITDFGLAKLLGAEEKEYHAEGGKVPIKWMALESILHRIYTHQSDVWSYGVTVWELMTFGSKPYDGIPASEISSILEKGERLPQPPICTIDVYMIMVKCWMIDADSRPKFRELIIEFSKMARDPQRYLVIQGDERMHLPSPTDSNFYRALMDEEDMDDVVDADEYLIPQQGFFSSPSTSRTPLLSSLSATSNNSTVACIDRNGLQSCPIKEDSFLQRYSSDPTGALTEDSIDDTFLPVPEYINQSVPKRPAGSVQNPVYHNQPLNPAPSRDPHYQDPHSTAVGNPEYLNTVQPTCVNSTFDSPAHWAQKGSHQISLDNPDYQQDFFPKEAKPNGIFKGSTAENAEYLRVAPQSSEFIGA
Chain of Ba/F3 EGFR-D770-N771ins_SVD (P00533 with tags, fused parts or gaps DUP768-770): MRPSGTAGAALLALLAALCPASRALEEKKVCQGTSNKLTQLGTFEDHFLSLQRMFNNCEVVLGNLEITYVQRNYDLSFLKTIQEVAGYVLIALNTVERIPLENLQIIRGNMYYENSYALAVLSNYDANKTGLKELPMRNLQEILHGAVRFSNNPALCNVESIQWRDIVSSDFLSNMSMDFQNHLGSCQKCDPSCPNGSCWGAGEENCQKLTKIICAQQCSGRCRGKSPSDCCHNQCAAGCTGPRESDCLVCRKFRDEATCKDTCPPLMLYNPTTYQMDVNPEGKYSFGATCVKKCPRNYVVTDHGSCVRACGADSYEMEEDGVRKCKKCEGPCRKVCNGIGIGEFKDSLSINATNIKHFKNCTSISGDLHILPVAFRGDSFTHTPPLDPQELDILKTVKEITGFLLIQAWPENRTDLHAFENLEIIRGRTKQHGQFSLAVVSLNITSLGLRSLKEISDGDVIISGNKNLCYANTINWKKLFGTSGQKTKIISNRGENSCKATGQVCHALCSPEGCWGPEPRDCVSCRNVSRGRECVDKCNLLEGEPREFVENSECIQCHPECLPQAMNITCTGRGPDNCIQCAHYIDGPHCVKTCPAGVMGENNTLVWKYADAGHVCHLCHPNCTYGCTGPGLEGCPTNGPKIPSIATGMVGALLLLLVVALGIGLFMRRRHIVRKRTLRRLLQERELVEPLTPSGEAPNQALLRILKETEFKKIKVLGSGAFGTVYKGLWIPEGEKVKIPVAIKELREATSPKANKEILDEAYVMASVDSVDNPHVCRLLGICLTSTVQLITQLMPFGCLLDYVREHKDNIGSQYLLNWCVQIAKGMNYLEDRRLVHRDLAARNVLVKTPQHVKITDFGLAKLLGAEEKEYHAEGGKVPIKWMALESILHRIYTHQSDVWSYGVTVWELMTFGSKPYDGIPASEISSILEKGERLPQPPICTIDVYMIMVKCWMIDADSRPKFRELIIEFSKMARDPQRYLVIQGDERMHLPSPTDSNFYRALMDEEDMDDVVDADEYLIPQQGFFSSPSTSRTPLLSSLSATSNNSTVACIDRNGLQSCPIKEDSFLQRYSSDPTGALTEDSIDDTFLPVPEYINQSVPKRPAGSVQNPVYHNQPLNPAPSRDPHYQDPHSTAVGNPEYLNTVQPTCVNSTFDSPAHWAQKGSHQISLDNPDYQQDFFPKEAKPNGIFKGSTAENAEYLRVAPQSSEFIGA

Take `C=C(F)C(=O)Nc1cc2c(Nc3ccnc(-c4ccccc4F)c3)ncnc2cc1N1CCC(F)(F)C1` [Example 108, N-(7-(3,3-difluoropyrrolidin-1-yl)-4-((2-(2-fluorophenyl)pyridin-4-yl)amino)quinazolin-6-yl)-2-fluoroacrylamide]: in experiment [1], the GI50 was 0.0299 µM.
Take `C=CC(=O)Nc1cc2c(Nc3cccc(-c4ccc(F)cc4F)c3)ncnc2cc1C#CC(C)(C)N(C)C` [Example 9, N-(4-((2′,4′-difluoro-[1,1′-biphenyl]-3-yl)amino)-7-(3-(dimethylamino)-3-methylbut-1-yn-1-yl)quinazolin-6-yl)acrylamide]: in experiment [2], the GI50 was 0.0401 µM. In the experiment with A431 (EGFR-WT), the IC50 (commonly the concentration that inhibits the measured activity by half) turned out to be 0.625 µM.
With `C=C(F)C(=O)Nc1cc2c(Nc3ccnc(-c4ccccc4F)c3)ncnc2cc1N1CCC(F)(F)CC1` [Example 110, N-(7-(4,4-difluoropiperidin-1-yl)-4-((2-(2-fluorophenyl)pyridin-4-yl)amino)quinazolin-6-yl)-2-fluoroacrylamide], the GI50 in experiment [1] stood at 0.0526 µM. In addition, in the experiment on A431 (EGFR-WT), the IC50 amounted to 0.703 µM.
`C=CC(=O)Nc1cc2c(Nc3cc(-c4ncc(F)cc4F)ccc3F)ncnc2cc1OCCCN1CCOCC1` [Example 2, N-(4-((5-(3,5-difluoropyridin-2-yl)-2-fluorophenyl)amino)-7-(3-morpholinopropoxy)quinazolin-6-yl)acrylamide]: the GI50 in experiment [2] amounted to 0.121 µM.
As to `C=C(F)C(=O)Nc1cc2c(Nc3ccnc(-c4ccccc4F)c3)ncnc2cc1N1CCC(F)CC1` [Example 109, 2-fluoro-N-(4-((2-(2-fluorophenyl)pyridin-4-yl)amino)-7-(4-fluoropiperidin-1-yl)quinazolin-6-yl)acrylamide], in experiment [1], the GI50 amounted to 0.0258 µM. The IC50 in the experiment with A431 (EGFR-WT) is 0.159 µM.
The like results for `C=C(F)C(=O)Nc1cc2c(Nc3ccnc(-c4ccccc4F)c3)ncnc2cc1N1CC(F)C1` [Example 106, 2-fluoro-N-(7-(3-fluoroazetidin-1-yl)-4-((2-(2-fluorophenyl)pyridin-4-yl)amino)quinazolin-6-yl)acrylamide] were, in that order, 0.0409 µM and 1.64 µM.
Regarding `C=CC(=O)Nc1cc2c(Nc3cc(-c4ccc(F)cn4)ccc3F)ncnc2cc1OCCCN1CCOCC1` [Example 23, N-(4-((2-fluoro-5-(5-fluoropyridin-2-yl)phenyl)amino)-7-(3-morpholinopropoxy)quinazolin-6-yl)acrylamide], in experiment [2], the GI50 was 0.261 µM.
Regarding `C=CC(=O)Nc1cc2c(Nc3cccc(-c4ccc(F)cc4F)c3)ncnc2cc1C#CC(C)(C)N1CCN(C)CC1` [Example 12, N-(4-((2′,4′-difluoro-[1,1′-biphenyl]-3-yl)amino)-7-(3-methyl-3-(4-methylpiperazin-1-yl)but-1-yn-1-yl)quinazolin-6-yl)acrylamide], the GI50 in experiment [2] was 0.0323 µM. Further, the 50% inhibitory concentration (IC50) in the experiment on A431 (EGFR-WT) was found to be 0.624 µM.
On to `C=CC(=O)Nc1cc2c(Nc3cccc(-c4ncc(F)cc4F)c3)ncnc2cc1OCCN1CCOCC1` [Example 16, N-(4-((3-(3,5-difluoropyridin-2-yl)phenyl)amino)-7-(2-morpholinoethoxy)quinazolin-6-yl)acrylamide], for which, in experiment [2], the GI50 amounted to 0.034 µM. In addition, the IC50 with A431 (EGFR-WT) is 0.372 µM.
For the compound `C=C(F)C(=O)Nc1cc2c(Nc3ccnc(-c4ccccc4F)c3)ncnc2cc1O[C@@H]1CCN(C2CN(C)C2)C1` [Example 119, (R)-2-fluoro-N-(4-((2-(2-fluorophenyl)pyridin-4-yl)amino)-7-((1-(1-methylazetidin-3-yl)pyrrolidin-3-yl)oxy)quinazolin-6-yl)acrylamide], the GI50 in experiment [1] amounted to 0.0034 µM. Moreover, in the experiment with A431 (EGFR-WT), the IC50 was 0.0102 µM.
On the same counts, the results for `C=CC(=O)Nc1cc2c(Nc3ccnc(-c4ccccc4F)c3)ncnc2cc1OCCOC` [Example 85, N-(4-((2-(2-fluorophenyl)pyridin-4-yl)amino)-7-(2-methoxyethoxy)quinazolin-6-yl)acrylamide] are 0.003 µM and 1.53 µM.
Turning to `C=CC(=O)Nc1cc2c(Nc3cc(-c4ncc(F)cc4F)ccc3F)ncnc2cc1OCCN1CCOCC1` [Example 18, N-(4-((5-(3,5-difluoropyridin-2-yl)-2-fluorophenyl)amino)-7-(2-morpholinoethoxy)quinazolin-6-yl)acrylamide], in experiment [2], the GI50 was found to be 0.129 µM.
As to `C=CC(=O)Nc1cc2c(Nc3ccnc(-c4ccccc4F)c3)ncnc2cc1OCC(F)(F)F` [Example 84, N-(4-((2-(2-fluorophenyl)pyridin-4-yl)amino)-7-(2,2,2-trifluoroethoxy)quinazolin-6-yl)acrylamide], the GI50 in experiment [1] is 0.0032 µM. The IC50 in the experiment on A431 (EGFR-WT) was 1.78 µM.
The like results for `C=C(F)C(=O)Nc1cc2c(Nc3ccnc(-c4ccccc4F)c3)ncnc2cc1OCCOC` [Example 89, 2-fluoro-N-(4-((2-(2-fluorophenyl)pyridin-4-yl)amino)-7-(2-methoxyethoxy)quinazolin-6-yl)acrylamide] were, in that order, 0.0128 µM and 0.112 µM.
The like results for `C=C(F)C(=O)Nc1cc2c(Nc3ccnc(-c4ccccc4F)c3)ncnc2cc1N1CC(OC)C1` [Example 104, 2-fluoro-N-(4-((2-(2-fluorophenyl)pyridin-4-yl)amino)-7-(3-methoxyazetidin-1-yl)quinazolin-6-yl)acrylamide] were, in that order, 0.03 µM and 1.19 µM.
Turning to `C=CC(=O)Nc1cc2c(Nc3cccc(-c4ccc(F)cn4)c3)ncnc2cc1OCCCN1CCOCC1` [Example 13, N-(4-((3-(5-fluoropyridin-2-yl)phenyl)amino)-7-(3-morpholinopropoxy)quinazolin-6-yl)acrylamide], the GI50 in experiment [2] worked out at 0.105 µM. Moreover, the IC50 with A431 (EGFR-WT) came to 0.625 µM.
Turning to `C=C(F)C(=O)Nc1cc2c(Nc3ccnc(-c4ccccc4F)c3)ncnc2cc1O[C@@H]1CCN(C2CCN(C)CC2)C1` [Example 120, (R)-2-fluoro-N-(4-((2-(2-fluorophenyl)pyridin-4-yl)amino)-7-((1-(1-methylpiperidin-4-yl)pyrrolidin-3-yl)oxy)quinazolin-6-yl)acrylamide], the GI50 in experiment [1] was 0.0071 µM. Also, the IC50 in the experiment with A431 (EGFR-WT) worked out at 0.006 µM.
For `C=C(F)C(=O)Nc1cc2c(Nc3ccnc(-c4ccccc4F)c3)ncnc2cc1N1CC(F)(F)C1` [Example 107, N-(7-(3,3-difluoroazetidin-1-yl)-4-((2-(2-fluorophenyl)pyridin-4-yl)amino)quinazolin-6-yl)-2-fluoroacrylamide], the GI50 in experiment [2] came to 0.0183 µM. Besides, in the experiment on A431 (EGFR-WT), the IC50 is 2.5 µM.
As for `C=CC(=O)Nc1cc2c(Nc3cc(-c4ccc(F)cc4F)ccc3F)ncnc2cc1OCCN1CCOCC1` [Example 10, N-(7-(2-morpholinoethoxy)-4-((2′,4,4′-trifluoro-[1,1′-biphenyl]-3-yl)amino)quinazolin-6-yl)acrylamide], the GI50 in experiment [2] worked out at 0.0287 µM. In addition, the IC50 in the experiment with A431 (EGFR-WT) was 0.625 µM.
For the compound `C=CC(=O)Nc1cc2c(Nc3ccnc(-c4ccccc4F)c3)ncnc2cc1O[C@@H]1CCN(C2CCOCC2)C1` [Example 117, (R)-N-(4-((2-(2-fluorophenyl)pyridin-4-yl)amino)-7-((1-(tetrahydro-2H-pyran-4-yl)pyrrolidin-3-yl)oxy)quinazolin-6-yl)acrylamide], the GI50 in experiment [1] was 0.0029 µM. For the same compound, the IC50 in the experiment on A431 (EGFR-WT) is 0.988 µM.
Take `C=CC(=O)Nc1cc2c(Nc3ccnc(-c4ccccc4F)c3)ncnc2cc1O[C@@H]1CCN(C2CN(C)C2)C1` [Example 115, (R)-N-(4-((2-(2-fluorophenyl)pyridin-4-yl)amino)-7-((1-(1-methylazetidin-3-yl)pyrrolidin-3-yl)oxy)quinazolin-6-yl)acrylamide]: in experiment [1], the GI50 is 0.0076 µM. The IC50 in the experiment on A431 (EGFR-WT) came to 0.0232 µM.
For `C=C(F)C(=O)Nc1cc2c(Nc3ccnc(-c4ccccc4F)c3)ncnc2cc1N1CCN(C)CC1` [Example 101, 2-fluoro-N-(4-((2-(2-fluorophenyl)pyridin-4-yl)amino)-7-(4-methylpiperazin-1-yl)quinazolin-6-yl)acrylamide], the GI50 in experiment [1] turned out to be 0.0208 µM. The half-inhibitory concentration (IC50) in the experiment with A431 (EGFR-WT) is 0.24 µM.
